Reference: patent publication US12655120B2, “GPR52 modulator compounds” (NXERA PHARMA UK LIMITED, priority 2020, dated 2026)

Target: T1, human GPR52 (Homo sapiens, UniProt Q9Y2T5)
T1 construct: expressed in transfected cells; host or cells: HEKf suspension cells infected with BacMam virus
Assay: GPR52 Agonist Functional cAMP Assay
Assay type: cell-based
Details: for EC50: HEKf cells infected with human GPR52 BacMam, HTRF cAMP, 30 min at 37° C., read-out: pEC50 average (converted); for Emax: normalised to DMSO (0%) and maximal compound 7m (J. Med. Chem., 2014, 57, 5226) response (100%)
Method: HEKf suspension cells were infected for 24 h with 0.1% v/v human GPR52 expressing BacMam virus, a modified baculovirus designed for mammalian gene expression. Following BacMam infection, cells were pelleted by centrifugation (335 g, 5 min), resuspended in cell freezing medium (Sigma) and frozen at −150° C. until required. On experiment day, 25 nL GPR52 compound dilutions, prepared in DMSO, were stamped onto proxiplates (PerkinElmer) by a LabCyte ECHO acoustic dispenser. Frozen cells were thawed and resuspended in assay stimulation buffer (Cisbio) containing 0.5 mM 3-iso-butyl-1-methylxanthine (IBMX, Sigma) to achieve a density of 2000 cells per well. 10 μl cells were added to assay plates using a Multidrop Combi Reagent Dispenser (ThermoFisher) before centrifugation (335 g, 1 min). Cells were incubated with compounds at 37° C. for 30 min prior to addition of cAMP detection reagents (HiRange cAMP kit, Cisbio) which were prepared according to the manufacturer's instructions. Plates were shaken for 1 h at room temperature before reading on a PHERAstar FS plate reader (BMG Labtech) using standard HTRF settings. HTRF ratios were obtained by dividing the acceptor emissions (665 nm) by the donor emissions (620 nm) and multiplying by 10,000.

T1 sequence (Q9Y2T5 whole entry): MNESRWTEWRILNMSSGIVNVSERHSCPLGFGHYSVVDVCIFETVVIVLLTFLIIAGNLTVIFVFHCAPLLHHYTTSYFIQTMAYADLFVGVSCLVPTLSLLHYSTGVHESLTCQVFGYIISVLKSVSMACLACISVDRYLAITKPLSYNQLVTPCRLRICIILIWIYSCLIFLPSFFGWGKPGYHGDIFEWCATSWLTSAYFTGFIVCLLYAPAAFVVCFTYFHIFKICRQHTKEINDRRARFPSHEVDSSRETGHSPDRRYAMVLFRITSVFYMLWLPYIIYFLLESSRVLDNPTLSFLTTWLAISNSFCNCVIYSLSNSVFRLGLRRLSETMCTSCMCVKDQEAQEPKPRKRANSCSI

SMILES | EC50 [µM] | Emax [%]
NC(=O)c1cnn(-c2cc(Cc3cc(F)cc(C(F)(F)F)c3)ccn2)n1 [Example 4, 2-(4-(3-fluoro-5-(trifluoromethyl)benzyl)pyridin-2-yl)-2H-1,2,3-triazole-4-carboxamide] | 0.316 | 84
Cc1nn(-c2cc(Cc3cc(F)cc(C(F)(F)F)c3)ccn2)cc1C(N)=O [Example 5, 1-(4-(3-fluoro-5-(trifluoromethyl)benzyl)pyridin-2-yl)-3-methyl-1H-pyrazole-4-carboxamide] | 0.0158 | 94
Cc1c(C(N)=O)cnn1-c1cc(Cc2cc(F)cc(C(F)(F)F)c2)ccn1 [Example 7, 1-(4-(3-fluoro-5-(trifluoromethyl)benzyl)pyridin-2-yl)-5-methyl-1H-pyrazole-4-carboxamide] | 0.126 | 93
Cc1nn(-c2ccnc(Cc3cc(F)cc(C(F)(F)F)c3)c2)cc1C(N)=O [Example 8, 1-(2-(3-fluoro-5-(trifluoromethyl)benzyl)pyridin-4-yl)-3-methyl-1H-pyrazole-4-carboxamide] | 0.02 | 96
NC(=O)c1ccn(-c2cc(Cc3cc(F)cc(C(F)(F)F)c3)ccn2)n1 [Example 9, 1-(4-(3-fluoro-5-(trifluoromethyl)benzyl)pyridin-2-yl)-1H-pyrazole-3-carboxamide] | 0.1 | 85
Cc1cn(-c2cc(Cc3cc(F)cc(C(F)(F)F)c3)ccn2)nc1C(N)=O [Example 10, 1-(4-(3-fluoro-5-(trifluoromethyl)benzyl)pyridin-2-yl)-4-methyl-1H-pyrazole-3-carboxamide] | 0.0794 | 83
Cc1nn(-c2cc(Cc3cc(F)cc(C(F)(F)F)c3)ccn2)nc1C(N)=O [Example 13, 2-(4-(3-fluoro-5-(trifluoromethyl)benzyl)pyridin-2-yl)-5-methyl-2H-1,2,3-triazole-4-carboxamide] | 0.0398 | 93
Cc1cn(-c2cccc(Cc3cc(F)cc(C(F)(F)F)c3)n2)nc1C(N)=O [Example 15, 1-(6-(3-fluoro-5-(trifluoromethyl)benzyl)pyridin-2-yl)-4-methyl-1H-pyrazole-3-carboxamide] | 0.0794 | 92
Cc1nn(-c2ccnc(Cc3cc(F)cc(C(F)(F)F)c3)c2)cc1C(=O)N(C)C [Example 18, 1-(2-(3-fluoro-5-(trifluoromethyl)benzyl)pyridin-4-yl)-N,N,3-trimethyl-1H-pyrazole-4-carboxamide] | 0.0794 | 92
Cc1nn(-c2ccnc(Cc3cc(F)cc(C(F)(F)F)c3)c2)cc1C(=O)NC1COC1 [Example 19, 1-(2-(3-fluoro-5-(trifluoromethyl)benzyl)pyridin-4-yl)-3-methyl-N-(oxetan-3-yl)-1H-pyrazole-4-carboxamide] | 0.0158 | 99
COCCNC(=O)c1cn(-c2ccnc(Cc3cc(F)cc(C(F)(F)F)c3)c2)nc1C [Example 21, 1-(2-(3-fluoro-5-(trifluoromethyl)benzyl)pyridin-4-yl)-N-(2-methoxyethyl)-3-methyl-1H-pyrazole-4-carboxamide] | 0.0398 | 96
NC(=O)c1cn(-c2ccnc(Cc3cc(F)cc(C(F)(F)F)c3)c2)nc1Cl [Example 22, 3-chloro-1-(2-(3-fluoro-5-(trifluoromethyl)benzyl)pyridin-4-yl)-1H-pyrazole-4-carboxamide] | 0.0158 | 96
NC(=O)c1cn(-c2ccnc(Cc3cc(F)cc(C(F)(F)F)c3)c2)nc1C(F)F [Example 23, 3-(difluoromethyl)-1-(2-(3-fluoro-5-(trifluoromethyl)benzyl)pyridin-4-yl)-1H-pyrazole-4-carboxamide] | 0.0251 | 87
CCc1nn(-c2ccnc(Cc3cc(F)cc(C(F)(F)F)c3)c2)cc1C(N)=O [Example 25, 3-ethyl-1-(2-(3-fluoro-5-(trifluoromethyl)benzyl)pyridin-4-yl)-1H-pyrazole-4-carboxamide] | 0.01 | 99
N#Cc1nn(-c2ccnc(Cc3cc(F)cc(C(F)(F)F)c3)c2)cc1C(N)=O [Example 26, 3-cyano-1-(2-(3-fluoro-5-(trifluoromethyl)benzyl)pyridin-4-yl)-1H-pyrazole-4-carboxamide] | 0.1 | 87
NC(=O)c1cn(-c2ccnc(Cc3cc(F)cc(C(F)(F)F)c3)c2)nc1C1CC1 [Example 27, 3-cyclopropyl-1-(2-(3-fluoro-5-(trifluoromethyl)benzyl)pyridin-4-yl)-1H-pyrazole-4-carboxamide] | 0.0251 | 97
Cc1cc(C(N)=O)nn1-c1cc(Cc2cc(F)cc(C(F)(F)F)c2)ccn1 [Example 30, 1-(4-(3-fluoro-5-(trifluoromethyl)benzyl)pyridin-2-yl)-5-methyl-1H-pyrazole-3-carboxamide] | 0.158 | 93

Now from value to compound:

EC50 [µM] | Emax [%] | SMILES
0.126 | 90 | NC(=O)c1cnn(-c2cc(Cc3cc(F)cc(C(F)(F)F)c3)ccn2)c1 [Example 1, 1-(4-(3-fluoro-5-(trifluoromethyl)benzyl)pyridin-2-yl)-1H-pyrazole-4-carboxamide]
0.501 | 90 | NC(=O)c1cnn(-c2ccnc(Cc3cc(F)cc(C(F)(F)F)c3)c2)c1 [Example 2, 1-(2-(3-fluoro-5-(trifluoromethyl)benzyl)pyridin-4-yl)-1H-pyrazole-4-carboxamide]
0.316 | 86 | CNC(=O)c1cnn(-c2cc(Cc3cc(F)cc(C(F)(F)F)c3)ccn2)c1 [Example 3, 1-(4-(3-fluoro-5-(trifluoromethyl)benzyl)pyridin-2-yl)-N-methyl-1H-pyrazole-4-carboxamide]
0.0126 | 97 | Cc1nn(-c2cc(Cc3cc(F)cc(C(F)(F)F)c3)ccn2)c(C)c1C(N)=O [Example 6, 1-(4-(3-fluoro-5-(trifluoromethyl)benzyl)pyridin-2-yl)-3,5-dimethyl-1H-pyrazole-4-carboxamide]
0.251 | 86 | COc1nn(-c2ccnc(Cc3cc(F)cc(C(F)(F)F)c3)c2)cc1C(N)=O [Example 11, 1-(2-(3-fluoro-5-(trifluoromethyl)benzyl)pyridin-4-yl)-3-methoxy-1H-pyrazole-4-carboxamide]
0.0501 | 95 | Cc1nn(-c2ccnc(Cc3cc(F)cc(C(F)(F)F)c3)c2)nc1C(N)=O [Example 12, 2-(2-(3-fluoro-5-(trifluoromethyl)benzyl)pyridin-4-yl)-5-methyl-2H-1,2,3-triazole-4-carboxamide]
0.0316 | 95 | COc1nn(-c2cc(Cc3cc(F)cc(C(F)(F)F)c3)ccn2)cc1C(N)=O [Example 14, 1-(4-(3-fluoro-5-(trifluoromethyl)benzyl)pyridin-2-yl)-3-methoxy-1H-pyrazole-4-carboxamide]
0.0316 | 93 | Cc1nn(-c2ccnc(Cc3cc(F)cc(C(F)(F)F)c3)c2)cc1C(=O)N1CCCC1 [Example 16, (1-(2-(3-fluoro-5-(trifluoromethyl)benzyl)pyridin-4-yl)-3-methyl-1H-pyrazol-4-yl)(pyrrolidin-1-yl)methanone]
0.01 | 93 | CNC(=O)c1cn(-c2ccnc(Cc3cc(F)cc(C(F)(F)F)c3)c2)nc1C [Example 17, 1-(2-(3-fluoro-5-(trifluoromethyl)benzyl)pyridin-4-yl)-N,3-dimethyl-1H-pyrazole-4-carboxamide]
0.0158 | 96 | Cc1nn(-c2ccnc(Cc3cc(F)cc(C(F)(F)F)c3)c2)cc1C(=O)NCCO [Example 20, 1-(2-(3-fluoro-5-(trifluoromethyl)benzyl)pyridin-4-yl)-N-(2-hydroxyethyl)-3-methyl-1H-pyrazole-4-carboxamide]
0.0251 | 91 | NC(=O)c1cn(-c2ccnc(Cc3cc(F)cc(C(F)(F)F)c3)c2)nc1C(F)(F)F [Example 24, 1-(2-(3-fluoro-5-(trifluoromethyl)benzyl)pyridin-4-yl)-3-(trifluoromethyl)-1H-pyrazole-4-carboxamide]
0.0316 | 95 | CNC(=O)c1cc(C)n(-c2cc(Cc3cc(F)cc(C(F)(F)F)c3)ccn2)n1 [Example 28, 1-(4-(3-fluoro-5-(trifluoromethyl)benzyl)pyridin-2-yl)-N,5-dimethyl-1H-pyrazole-3-carboxamide]
1.26 | 86 | NC(=O)c1ccn(-c2ccnc(Cc3cc(F)cc(C(F)(F)F)c3)c2)n1 [Example 29, 1-(2-(3-fluoro-5-(trifluoromethyl)benzyl)pyridin-4-yl)-1H-pyrazole-3-carboxamide]
0.02 | 87 | CNC(=O)c1ccn(-c2cc(Cc3cc(F)cc(C(F)(F)F)c3)ccn2)n1 [Example 31, 1-(4-(3-fluoro-5-(trifluoromethyl)benzyl)pyridin-2-yl)-N-methyl-1H-pyrazole-3-carboxamide]
0.2 | 75 | CN(C)C(=O)c1ccn(-c2cc(Cc3cc(F)cc(C(F)(F)F)c3)ccn2)n1 [Example 32, 1-(4-(3-fluoro-5-(trifluoromethyl)benzyl)pyridin-2-yl)-N,N-dimethyl-1H-pyrazole-3-carboxamide]
